Measured values as given in patent US10941126B2, “Bridged bicycloalkyl-substituted aminothiazoles and their methods of use” (Temple University—Of The Commonwealth System of Higher …, priority 2017, dated 2021).

Tested on: SW48 colon cancer cells
Assay: SW48-luc tumors in NSG mice (bioluminescence)
Format: in vivo, mouse
Conditions: 10 mg/kg
Protocol: SW48-luc cell line was generated by transfecting ffluc2ires-h2b-egfp into SW48 cells. GFP positive cells were sorted out one week after transfection and expanded for the in vivo experiments. NSG mice were then inoculated (i.p.) with 1×10^5 SW48-luc cells. One week later, at which time substantial tumor burden was evident by bioluminescence imaging, 5-20 mg/kg MC180295 or drug solvent was administered (i.p) every other day. 200 uL of diluted Pierce™ D-Luciferin, Monosodium Salt (Fisher, 88292) (working concentration: 15 mg/mL) was administered (i.p) into each mouse and was imaged using IVIS imaging system 5 minutes after the administration. Three vehicle treated mice and five drug treated mice were used in this study. MC180295 was dissolved in NMP, Captisol (20% w/v), PEG-400 and normal saline (PBS) in a ratio of 1:4:4:11. NMP first, followed by Captisol and PEG-400. PBS was added last.

## Nc1nc(N[C@H]2CC3CCC2C3)sc1C(=O)c1ccccc1[N+](=O)[O-] (some centres unmarked) [MC180295]
After one-week drug exposure
  tumor shrinkage (luciferase activity): ~50%
After three weeks drug treatment
  tumor burden (luciferase activity): lower
